# Like-named read-outs stand apart in the source and are kept apart here.
# Legend:
# Format in all cases: cell-based
# Gram + = assay: MIC test, average over the 5 gram-positive test germs; details: 24 h
# Method in brief: (§1)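 Compounds are dissolved in DMSO plus 1N NaOH at 2560 µg/ml, serially halved and mixed into molten TSA, giving 64 µg/ml per dish at the top. Dried plates are inoculated with 1-2.10⁷ cfu/ml bacteria and read after 24 h at 35°C.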
# Escherichia coli CNUR 1 = assay: MIC test, agar dilution with Steers multiwell inoculator; details: CNUR1, TSA dishes, 24 h at 35°C, read-out: Minimum Inhibiting Concentration
# Method in brief: as §1
# [1] = system: Escherichia coli ATCC 8739; assay: as above; details: ATCC8739, TSA dishes, 24 h at 35°C, read-out: Minimum Inhibiting Concentration
# Method in brief: as §1
# [2] = system: Pseudomonas aeruginosa ATCC 9027; assay: as above; details: ATCC9027, TSA dishes, 24 h at 35°C, read-out: Minimum Inhibiting Concentration
# Method in brief: as §1
# [3] = system: Klebsiella pneumoniae ATCC 10031; assay: as above; details: ATCC10031, TSA dishes, 24 h at 35°C, read-out: Minimum Inhibiting Concentration
# Method in brief: as §1
# Escherichia coli 120 = assay: as above; details: TSA dishes, 24 h at 35°C, read-out: Minimum Inhibiting Concentration
# Method in brief: as §1
# [4] = system: Pseudomonas aeruginosa CNUR 2; assay: as above; details: CNUR2, TSA dishes, 24 h at 35°C, read-out: Minimum Inhibiting Concentration
# Method in brief: as §1
# Shighella enteritidis = assay: as above; details: TSA dishes, 24 h at 35°C, read-out: Minimum Inhibiting Concentration
# Method in brief: as §1
# [5] = system: Enterobacter cloacae OMNF 1153; assay: as above; details: OMNF1153, TSA dishes, 24 h at 35°C, read-out: Minimum Inhibiting Concentration
# Method in brief: as §1
# [6] = system: Enterobacter cloacae OMNF 1174; assay: as above; details: OMNF1174, TSA dishes, 24 h at 35°C, read-out: Minimum Inhibiting Concentration
# Method in brief: as §1
# [7] = system: Acinebacter calcoloaceticus OSMPV 1130; assay: as above; details: TSA dishes, 24 h at 35°C, read-out: Minimum Inhibiting Concentration
# Method in brief: as §1
# [8] = system: Streptococcus facealis LEP Br.; assay: as above; details: TSA dishes, 24 h at 35°C, read-out: Minimum Inhibiting Concentration
# Method in brief: as §1
# [9] = system: Staphylococcus aureus ATCC 6538; assay: as above; details: ATCC6538, TSA dishes, 24 h at 35°C, read-out: Minimum Inhibiting Concentration
# Method in brief: as §1
# [10] = system: Staphylococcus epidermidis CPHL A2; assay: as above; details: CPHLA2, TSA dishes, 24 h at 35°C, read-out: Minimum Inhibiting Concentration
# Method in brief: as §1
# [11] = system: Pseudomonas aeruginosa CNUR 4; assay: as above; details: CNUR4, TSA dishes, 24 h at 35°C, read-out: Minimum Inhibiting Concentration
# Method in brief: as §1
# [12] = system: Providencia stuardii CNUR 5; assay: as above; details: CNUR5, TSA dishes, 24 h at 35°C, read-out: Minimum Inhibiting Concentration
# Method in brief: as §1
# Proteus vulgaris CNUR 6 = assay: as above; details: CNUR6, TSA dishes, 24 h at 35°C, read-out: Minimum Inhibiting Concentration
# Method in brief: as §1
# [13] = system: Staphylococcus aureus MPR 5; assay: as above; details: MPR5, TSA dishes, 24 h at 35°C, read-out: Minimum Inhibiting Concentration
# Method in brief: as §1
# Escherichia coli CNUR 8 = assay: as above; details: CNUR8, TSA dishes, 24 h at 35°C, read-out: Minimum Inhibiting Concentration
# Method in brief: as §1
# Escherichia coli ISF 432 = assay: as above; details: ISF432, TSA dishes, 24 h at 35°C, read-out: Minimum Inhibiting Concentration
# Method in brief: as §1
# [14] = system: Staphylococcus epidermidis HCF Berset C.; assay: as above; details: TSA dishes, 24 h at 35°C, read-out: Minimum Inhibiting Concentration
# Method in brief: as §1
# Gram - = assay: MIC test, average over the 15 gram-negative test germs; details: 24 h
# Method in brief: as §1
# [15] = geometrical average of the MIC over the 5 Gram + strains, read-out: Geometrical Average
# [16] = geometrical average of the MIC over the 15 Gram - strains, read-out: Geometrical Average
# [17] = mean log of the MIC over the 15 Gram - strains, read-out: Log (converted)
Compound,MIC (Gram +; read-out: Log (converted)),MIC (Escherichia coli CNUR 1),MIC [1],MIC [2],MIC [3],MIC (Escherichia coli 120),MIC [4],MIC (Shighella enteritidis),MIC [5],MIC [6],MIC [7],MIC [8],MIC [9],MIC [10],MIC [11],MIC [12],MIC (Proteus vulgaris CNUR 6),MIC [13],MIC (Escherichia coli CNUR 8),MIC (Escherichia coli ISF 432),further results
Cc1c(N2CCN(C)CC2)c(N)cc2c(=O)c(C(=O)O)cn(C3CC3)c12 [Compound 33],1.15 µg/mL,0.06 µg/mL,0.06 µg/mL,2 µg/mL,0.03 µg/mL,0.06 µg/mL,8 µg/mL,0.06 µg/mL,0.25 µg/mL,0.06 µg/mL,2 µg/mL,8 µg/mL,0.5 µg/mL,1 µg/mL,16 µg/mL,2 µg/mL,8 µg/mL,1 µg/mL,0.06 µg/mL,0.03 µg/mL,MIC (Gram +; [15]): 1.15 µg/mL; MIC [14]: 0.5 µg/mL; MIC (Gram -; [16]): 0.338 µg/mL; MIC (Gram -; [17]): 0.338 µg/mL
CN1CCN(c2c(N)cc3c(=O)c(C(=O)O)cn(C4CC4)c3c2F)CC1 [Compound 22],8 µg/mL,0.12 µg/mL,1 µg/mL,2 µg/mL,0.06 µg/mL,0.06 µg/mL,8 µg/mL,0.25 µg/mL,0.25 µg/mL,0.25 µg/mL,8 µg/mL,64 µg/mL,4 µg/mL,4 µg/mL,32 µg/mL,4 µg/mL,32 µg/mL,4 µg/mL,0.12 µg/mL,0.06 µg/mL,MIC [14]: 8 µg/mL; MIC (Gram -; [16]): 0.783 µg/mL; MIC (Gram -; [17]): 0.783 µg/mL
"CC(C)(C)n1cc(C(=O)O)c(=O)c2cc(N)c(N3CCc4ccccc4C3)cc21 [Compound 47, 6-amino-1-terbutyl-7-[2-(1,2,3,4-tetrahydroisoquinolinyl)]-1,4-dihydro-4-oxo-quinoline carboxylic acid]",0.871 µg/mL,8 µg/mL,0.12 µg/mL,32 µg/mL,0.12 µg/mL,2 µg/mL,64 µg/mL,8 µg/mL,16 µg/mL,8 µg/mL,2 µg/mL,8 µg/mL,0.25 µg/mL,0.5 µg/mL,128 µg/mL,4 µg/mL,128 µg/mL,0.5 µg/mL,2 µg/mL,0.12 µg/mL,MIC (Gram +; [15]): 0.871 µg/mL; MIC [14]: 1 µg/mL; MIC (Gram -; [16]): 4.77 µg/mL; MIC (Gram -; [17]): 4.78 µg/mL
Nc1cc2c(=O)c(C(=O)O)cn(C3CC3)c2cc1N1CCCC1 [Compound 10],128 µg/mL,16 µg/mL,0.25 µg/mL,128 µg/mL,0.25 µg/mL,4 µg/mL,128 µg/mL,16 µg/mL,16 µg/mL,8 µg/mL,128 µg/mL,128 µg/mL,128 µg/mL,128 µg/mL,128 µg/mL,128 µg/mL,128 µg/mL,128 µg/mL,8 µg/mL,0.25 µg/mL,MIC [14]: 128 µg/mL; MIC (Gram -; [16]): 13.3 µg/mL; MIC (Gram -; [17]): 13.3 µg/mL
CN1CCN(c2cc3c(cc2N)c(=O)c(C(=O)O)cn3C2CC2)CC1 [Compound 8],4 µg/mL,0.25 µg/mL,0.25 µg/mL,4 µg/mL,0.03 µg/mL,0.12 µg/mL,16 µg/mL,0.25 µg/mL,0.25 µg/mL,0.25 µg/mL,4 µg/mL,32 µg/mL,2 µg/mL,2 µg/mL,64 µg/mL,8 µg/mL,64 µg/mL,2 µg/mL,0.12 µg/mL,0.03 µg/mL,MIC [14]: 4 µg/mL; MIC (Gram -; [16]): 0.861 µg/mL; MIC (Gram -; [17]): 0.861 µg/mL
Cc1c(N2CCNCC2)c(N)cc2c(=O)c(C(=O)O)cn(C3CC3)c12 [Compound 34],2 µg/mL,0.12 µg/mL,0.12 µg/mL,4 µg/mL,0.06 µg/mL,0.12 µg/mL,16 µg/mL,0.06 µg/mL,0.25 µg/mL,0.12 µg/mL,4 µg/mL,8 µg/mL,1 µg/mL,1 µg/mL,16 µg/mL,2 µg/mL,8 µg/mL,2 µg/mL,0.06 µg/mL,0.06 µg/mL,MIC (Gram +; [15]): 2 µg/mL; MIC [14]: 2 µg/mL; MIC (Gram -; [16]): 0.51 µg/mL; MIC (Gram -; [17]): 0.513 µg/mL

# — patent EP0531958A1, “6-Aminoquinolones, their synthesis and their use as antibacterial agents” (MEDIOLANUM FARMACEUTICI S.P.A., priority 1991, dated 1993)
